# In patent US9216183B2, “Topical treatment for chemotherapy induced eyelash loss or hypotrichosis using prostamide F2 alpha agonists” (ALLERGAN, INC., priority 2002, dated 2015):
# Several values for one entry are separate records, joined by “and”; a condition that tells them apart may be missing. Equal entries are not always repeated.
# Tested on: eyelashes of subjects with idiopathic hypotrichosis
# Assay: GEA / ESQ Domain 2 responder analysis, 1-year clinical study, idiopathic hypotrichosis
# Format: in vivo, human
# Excerpt: A one-year, multicenter, randomized, double-masked, vehicle-controlled study. Adult post-chemotherapy and idiopathic eyelash hypotrichosis subjects were enrolled based on their score of 1 or 2 on a four point ordinal Global Eyelash Assessment (GEA) scale, and in addition having a low score on a PRO measure associated with 'psychological impact' of the condition, a domain-2 of the Eyelash Satisfaction Questionnaire (ESQ). The study involved two treatment periods of six months each. In the first treatment period, subjects for both populations were randomized 3:1 for QD bimatoprost: vehicle treatment. In the second 6-month treatment period, all subjects were moved to bimatoprost treatment, except for a group of bimatoprost treated idiopathic hypotrichosis subjects (n=55) who were switched to vehicle to investigate the effect of drug discontinuation. The study included 9 visits over the 12-month treatment period. The primary end point was the proportion of responders within each treatment group based on a composite measure of GEA and ESQ Domain-2 (investigator assessed eyelash prominence and subject's assessment of 'psychological impact' related to eyelashes) at month-4. This multicenter, double-masked, randomized, parallel-group study included two 6-month treatment periods. Subjects with idiopathic hypotrichosis were randomized to 3 treatment groups: 1) treatment period 1 (TP1) and TP2: bimatoprost; 2) TP1: bimatoprost; TP2: vehicle; and 3) TP1: vehicle; TP2: bimatoprost. Subjects with chemotherapy-induced hypotrichosis were randomized to 2 treatment groups: 1) TP1: bimatoprost or vehicle; and 2) TP2: bimatoprost. The primary endpoint was a composite of at least a 1-grade improvement in investigator-assessed Global Eyelash Assessment (GEA), and at least a 3-point improvement in subject-reported Eyelash Satisfaction Questionnaire (ESQ) Domain 2 (self-perceived confidence, attractiveness, and professionalism) at month 4. Secondary measures included digitally assessed eyelash characteristics (i.e., eyelash length, fullness, and darkness). Idiopathic hypotrichosis subjects were randomized to 3 treatment arms in a 2:1:1 ratio: bimatoprost during both treatment periods; vehicle in TP1 and bimatoprost in TP2; and bimatoprost in TP1 and vehicle in TP2. Chemotherapy-induced hypotrichosis subjects were randomized in a 3:1 ratio to receive bimatoprost during both treatment periods or vehicle in TP1 followed by bimatoprost in TP2. Male or female subjects at least 18 years of age who met these criteria were eligible for inclusion in the study: a score of 1 or 2 on the clinician-graded global eyelash assessment (“GEA”); a score of 1 (very much disagree) or 2 (disagree) on each of 3 items (16 [confidence], 19 [attractiveness], and 18 [professionalism]) on the subject-assessed eyelash satisfaction questionnaire (“esq”); best-corrected visual acuity (“bcva”) score equivalent to a […] acuity of 20/100 or better in each eye; and intraocular pressure (“iop”) 20 mm hg or less in each eye. Subjects in the chemotherapy-induced hypotrichosis population also met the following inclusion criteria: inadequate eyelashes after completing chemotherapy; treatment for solid tumor type stage 1, 2, or 3a cancer; last chemotherapy treatment at least 4 to less than 16 weeks prior to baseline; and considered free of cancer. Key exclusion criteria included subjects with any eye disease or abnormality or a history of eye surgery. Subjects placed 1 drop of study treatment (i.e., bimatoprost 0.03% or vehicle) onto a sterile single-use-per eye applicator and applied it to the upper eyelid margin of 1 eye; a second applicator was used for the contralateral eye. Treatment was applied once daily in the evening throughout the study. […]
# [1] = Bim/Veh group (n = 60), Month 1 (on bimatoprost)
# [2] = Bim/Veh group (n = 60), Month 2 (on bimatoprost)
# [3] = Bim/Veh group (n = 60), Month 4 (on bimatoprost)
# [4] = Bim/Veh group (n = 60), Month 6 (on bimatoprost)
# [5] = Bim/Veh group (n = 60), Month 7 (vehicle since month 6)
# [6] = Bim/Veh group (n = 60), Month 8 (vehicle since month 6)
# [7] = Bim/Veh group (n = 60), Month 10 (vehicle since month 6)
# [8] = Bim/Veh group (n = 60), Month 12 (vehicle since month 6)
# [9] = Month 4, all bimatoprost TP1 (n = 179)
# [10] = Month 6, all bimatoprost TP1 (n = 179)
compound,measurement,setting,value
"CCNC(=O)CCC/C=C\C[C@@H]1[C@@H](/C=C/[C@@H](O)CCc2ccccc2)[C@H](O)C[C@@H]1O [Bim 0.03%, bimatoprost]",Primary composite endpoint responders (≧1-grade GEA and ≧3-point ESQ Domain 2 improvement),[1],0.0%
same,≧1-Grade Improvement From Baseline GEA Score,[1],10.0%
same,≧2-Grade Improvement From Baseline GEA Score,[1],0.0%
same,≧3-Point Improvement From Baseline ESQ Domain 2 Score,[1],13.3%
same,Primary composite endpoint responders (≧1-grade GEA and ≧3-point ESQ Domain 2 improvement),[2],13.3%
same,≧1-Grade Improvement From Baseline GEA Score,[2],40.0%
same,≧2-Grade Improvement From Baseline GEA Score,[2],3.3%
same,≧3-Point Improvement From Baseline ESQ Domain 2 Score,[2],25.0%
same,Primary composite endpoint responders (≧1-grade GEA and ≧3-point ESQ Domain 2 improvement),[3],41.7%
same,≧1-Grade Improvement From Baseline GEA Score,[3],71.7%
same,≧2-Grade Improvement From Baseline GEA Score,[3],25.0%
same,≧3-Point Improvement From Baseline ESQ Domain 2 Score,[3],48.3%
same,Primary composite endpoint responders (≧1-grade GEA and ≧3-point ESQ Domain 2 improvement),[4],48.3%
same,≧1-Grade Improvement From Baseline GEA Score,[4],76.7%
same,≧2-Grade Improvement From Baseline GEA Score,[4],30.0%
same,≧3-Point Improvement From Baseline ESQ Domain 2 Score,[4],56.7%
same,Primary composite endpoint responders (≧1-grade GEA and ≧3-point ESQ Domain 2 improvement),[5],51.7%
same,≧1-Grade Improvement From Baseline GEA Score,[5],78.3%
same,≧2-Grade Improvement From Baseline GEA Score,[5],30.0%
same,≧3-Point Improvement From Baseline ESQ Domain 2 Score,[5],56.7%
same,Primary composite endpoint responders (≧1-grade GEA and ≧3-point ESQ Domain 2 improvement),[6],50.0%
same,≧1-Grade Improvement From Baseline GEA Score,[6],78.3%
same,≧2-Grade Improvement From Baseline GEA Score,[6],28.3%
same,≧3-Point Improvement From Baseline ESQ Domain 2 Score,[6],55.0%
same,Primary composite endpoint responders (≧1-grade GEA and ≧3-point ESQ Domain 2 improvement),[7],20.0%
same,≧1-Grade Improvement From Baseline GEA Score,[7],46.7%
same,≧2-Grade Improvement From Baseline GEA Score,[7],8.3%
same,≧3-Point Improvement From Baseline ESQ Domain 2 Score,[7],43.3%
same,Primary composite endpoint responders (≧1-grade GEA and ≧3-point ESQ Domain 2 improvement),[8],11.7%
same,≧1-Grade Improvement From Baseline GEA Score,[8],35.0%
same,≧2-Grade Improvement From Baseline GEA Score,[8],5.0%
same,≧3-Point Improvement From Baseline ESQ Domain 2 Score,[8],38.3%
same,Primary composite endpoint responders (≧1-grade GEA and ≧3-point ESQ Domain 2 improvement),[9],40.2%
same,Responders with ≧1-grade increase in GEA score,[9],74.3%
same,Responders with ≧2-grade increase in GEA score,[9],25.7%
same,Responders with ≧3-point increase in ESQ Domain 2,[9],47.5%
same,Responders with ≧1-grade increase in GEA score,"Month 4, all bimatoprost TP1 (n = 179), listed as Bimatoprost",74.3%
same,Responders with ≧1-grade increase in GEA score,"Month 4, all bimatoprost TP1 (n = 179), listed as bimatoprost",74.3% and > 70%
same,Primary composite endpoint responders (≧1-grade GEA and ≧3-point ESQ Domain 2 improvement),[10],47.5%
same,Responders with ≧1-grade increase in GEA score,[10],77.7%
same,Responders with ≧2-grade increase in GEA score,[10],30.7%
same,Responders with ≧3-point increase in ESQ Domain 2,[10],55.9%
same,Time efficacy was maintained after drug discontinuation,bimatoprost 6 months then vehicle,about 2 months
